Assay results: ChEMBL document CHEMBL1154064, “Synthesis and DNA cleavage activity of 2-hydrazinyl-1,4,5,6-tetrahydropyrimidine containing hydroxy group” (2009)

Experiments:
[1] = test system: Nucleic Acid; assay: Binding affinity to Escherichia coli pUC19 DNA assessed as form 1 DNA level at 0.320 mM after 4.95 hrs by agarose gel electrophoresis; type: nucleic-acid assay
[2] = test system: Nucleic Acid; assay: Binding affinity to Escherichia coli pUC19 DNA assessed as form 1 DNA level at 0.175 mM after 4.95 hrs by agarose gel electrophoresis; type: nucleic-acid assay
[3] = test system: Nucleic Acid; assay: Binding affinity to Escherichia coli pUC19 DNA assessed as form 1 DNA level at 0.698 mM after 9.07 hrs by agarose gel electrophoresis; type: nucleic-acid assay
[4] = test system: Nucleic Acid; assay: Binding affinity to Escherichia coli pUC19 DNA assessed as form 2 DNA level at 0.320 mM after 9.07 hrs by agarose gel electrophoresis; type: nucleic-acid assay
[5] = test system: Nucleic Acid; assay: Binding affinity to Escherichia coli pUC19 DNA assessed as form 1 DNA level at 0.175 mM by agarose gel electrophoresis; type: nucleic-acid assay
[6] = test system: Nucleic Acid; assay: Binding affinity to Escherichia coli pUC19 DNA assessed as form 1 DNA level at 0.698 mM after 4.95 hrs by agarose gel electrophoresis; type: nucleic-acid assay
[7] = test system: Nucleic Acid; assay: Binding affinity to Escherichia coli pUC19 DNA assessed as form 1 DNA level at 0.463 mM after 11.30 hrs by agarose gel electrophoresis; type: nucleic-acid assay
[8] = test system: Nucleic Acid; assay: Binding affinity to Escherichia coli pUC19 DNA assessed as form 2 DNA level at 0.175 mM after 13.07 hrs by agarose gel electrophoresis; type: nucleic-acid assay
[9] = test system: Nucleic Acid; assay: Binding affinity to Escherichia coli pUC19 DNA assessed as form 2 DNA level at 0.698 mM after 9.07 hrs by agarose gel electrophoresis; type: nucleic-acid assay
[10] = test system: Nucleic Acid; assay: Binding affinity to Escherichia coli pUC19 DNA assessed as form 2 DNA level at 0.463 mM after 15 hrs by agarose gel electrophoresis; type: nucleic-acid assay
[11] = test system: Nucleic Acid; assay: Binding affinity to Escherichia coli pUC19 DNA assessed as form 2 DNA level at 0.175 mM after 9.07 hrs by agarose gel electrophoresis; type: nucleic-acid assay
[12] = test system: Nucleic Acid; assay: Binding affinity to Escherichia coli pUC19 DNA assessed as form 2 DNA level at 0.320 mM by agarose gel electrophoresis; type: nucleic-acid assay
[13] = test system: Nucleic Acid; assay: Binding affinity to Escherichia coli pUC19 DNA assessed as form 1 DNA level at 0.463 mM after 15 hrs by agarose gel electrophoresis; type: nucleic-acid assay
[14] = test system: Nucleic Acid; assay: Binding affinity to Escherichia coli pUC19 DNA assessed as form 2 DNA level at 0.463 mM after 4.42 hrs by agarose gel electrophoresis; type: nucleic-acid assay
[15] = test system: Nucleic Acid; assay: Binding affinity to Escherichia coli pUC19 DNA assessed as form 2 DNA level at 0.463 mM after 7.08 hrs by agarose gel electrophoresis; type: nucleic-acid assay
[16] = test system: Nucleic Acid; assay: Binding affinity to Escherichia coli pUC19 DNA assessed as form 1 DNA level at 0.320 mM after 9.07 hrs by agarose gel electrophoresis; type: nucleic-acid assay
[17] = test system: HeLa; assay: Growth inhibition of human HeLa cells at 10 uM after 72 hrs by MTT assay; type: functional; parameters: scale not given: the % may be the effect or the level left
[18] = test system: Nucleic Acid; assay: Binding affinity to Escherichia coli pUC19 DNA assessed as form 1 DNA level at 0.463 mM after 7.08 hrs by agarose gel electrophoresis; type: nucleic-acid assay
[19] = test system: Nucleic Acid; assay: Binding affinity to Escherichia coli pUC19 DNA assessed as form 2 DNA level at 0.175 mM by agarose gel electrophoresis; type: nucleic-acid assay
[20] = test system: Nucleic Acid; assay: Binding affinity to Escherichia coli pUC19 DNA assessed as form 2 DNA level at 0.175 mM after 23.12 hrs by agarose gel electrophoresis; type: nucleic-acid assay
[21] = test system: HL-60; assay: Growth inhibition of human HL60 cells at 1000 uM after 72 hrs by MTT assay; type: functional; parameters: scale not given: the % may be the effect or the level left
[22] = test system: HL-60; assay: Growth inhibition of human HL60 cells at 100 uM after 72 hrs by MTT assay; type: functional; parameters: scale not given: the % may be the effect or the level left
[23] = test system: Nucleic Acid; assay: Binding affinity to Escherichia coli pUC19 DNA assessed as form 2 DNA level at 0.320 mM after 4.95 hrs by agarose gel electrophoresis; type: nucleic-acid assay
[24] = test system: Nucleic Acid; assay: Binding affinity to Escherichia coli pUC19 DNA assessed as form 1 DNA level at 0.175 mM after 13.07 hrs by agarose gel electrophoresis; type: nucleic-acid assay
[25] = test system: Nucleic Acid; assay: Binding affinity to Escherichia coli pUC19 DNA assessed as form 1 DNA level at 0.320 mM after 13.07 hrs by agarose gel electrophoresis; type: nucleic-acid assay
[26] = test system: Nucleic Acid; assay: Binding affinity to Escherichia coli pUC19 DNA assessed as form 1 DNA level at 0.463 mM by agarose gel electrophoresis; type: nucleic-acid assay
[27] = test system: Nucleic Acid; assay: Binding affinity to Escherichia coli pUC19 DNA assessed as form 2 DNA level at 0.463 mM after 11.30 hrs by agarose gel electrophoresis; type: nucleic-acid assay
[28] = test system: Nucleic Acid; assay: Binding affinity to Escherichia coli pUC19 DNA assessed as form 1 DNA level at 0.698 mM after 13.07 hrs by agarose gel electrophoresis; type: nucleic-acid assay
[29] = test system: HL-60; assay: Growth inhibition of human HL60 cells at 10 uM after 72 hrs by MTT assay; type: functional; parameters: scale not given: the % may be the effect or the level left
[30] = test system: HeLa; assay: Growth inhibition of human HeLa cells at 1000 uM after 72 hrs by MTT assay; type: functional; parameters: scale not given: the % may be the effect or the level left
[31] = test system: Nucleic Acid; assay: Binding affinity to Escherichia coli pUC19 DNA assessed as form 2 DNA level at 0.698 mM by agarose gel electrophoresis; type: nucleic-acid assay
[32] = test system: Nucleic Acid; assay: Binding affinity to Escherichia coli pUC19 DNA assessed as form 2 DNA level at 0.698 mM after 13.07 hrs by agarose gel electrophoresis; type: nucleic-acid assay
[33] = test system: Nucleic Acid; assay: Binding affinity to Escherichia coli pUC19 DNA assessed as form 2 DNA level at 0.175 mM after 4.95 hrs by agarose gel electrophoresis; type: nucleic-acid assay
[34] = test system: Nucleic Acid; assay: Binding affinity to Escherichia coli pUC19 DNA assessed as form 1 DNA level at 0.698 mM after 23.12 hrs by agarose gel electrophoresis; type: nucleic-acid assay
[35] = test system: Nucleic Acid; assay: Binding affinity to Escherichia coli pUC19 DNA assessed as form 1 DNA level at 0.175 mM after 9.07 hrs by agarose gel electrophoresis; type: nucleic-acid assay
[36] = test system: Nucleic Acid; assay: Binding affinity to Escherichia coli pUC19 DNA assessed as form 2 DNA level at 0.698 mM after 23.12 hrs by agarose gel electrophoresis; type: nucleic-acid assay
[37] = test system: Nucleic Acid; assay: Binding affinity to Escherichia coli pUC19 DNA assessed as form 1 DNA level at 0.320 mM after 27.33 hrs by agarose gel electrophoresis; type: nucleic-acid assay
[38] = test system: Nucleic Acid; assay: Binding affinity to Escherichia coli pUC19 DNA assessed as form 1 DNA level at 0.463 mM after 4.42 hrs by agarose gel electrophoresis; type: nucleic-acid assay
[39] = test system: Nucleic Acid; assay: Binding affinity to Escherichia coli pUC19 DNA assessed as form 1 DNA level at 0.175 mM after 23.12 hrs by agarose gel electrophoresis; type: nucleic-acid assay
[40] = test system: Nucleic Acid; assay: Binding affinity to Escherichia coli pUC19 DNA assessed as form 1 DNA level at 0.698 mM by agarose gel electrophoresis; type: nucleic-acid assay
[41] = test system: HeLa; assay: Growth inhibition of human HeLa cells at 100 uM after 72 hrs by MTT assay; type: functional; parameters: scale not given: the % may be the effect or the level left
[42] = test system: Nucleic Acid; assay: Binding affinity to Escherichia coli pUC19 DNA assessed as form 2 DNA level at 0.320 mM after 13.07 hrs by agarose gel electrophoresis; type: nucleic-acid assay
[43] = test system: Nucleic Acid; assay: Binding affinity to Escherichia coli pUC19 DNA assessed as form 1 DNA level at 0.320 mM by agarose gel electrophoresis; type: nucleic-acid assay
[44] = test system: Nucleic Acid; assay: Binding affinity to Escherichia coli pUC19 DNA assessed as form 2 DNA level at 0.698 mM after 4.95 hrs by agarose gel electrophoresis; type: nucleic-acid assay
[45] = test system: Nucleic Acid; assay: Binding affinity to Escherichia coli pUC19 DNA assessed as form 2 DNA level at 0.320 mM after 27.33 hrs by agarose gel electrophoresis; type: nucleic-acid assay
[46] = test system: Nucleic Acid; assay: Binding affinity to Escherichia coli pUC19 DNA assessed as form 2 DNA level at 0.463 mM by agarose gel electrophoresis; type: nucleic-acid assay

Cl.Cl.NNC1=NCCN1 showed an Activity [1] of 95%, an Activity [2] of 98.6% and an Activity [3] of 95.8%. It also gave an Activity [4] of 5.87%, an Activity [5] of 99.6% and an Activity [6] of 97.9%. For the same compound, the Activity [7] was 92.9%, the Activity [8] was 3.07% and the Activity [9] was 4.22%. For the same compound, the Activity [10] was 9.67%, the Activity [11] was 1.8% and the Activity [12] was 3.24%. It also gave an Activity [13] of 90.3%, an Activity [14] of 2.64% and an Activity [15] of 4.78%. It also gave an Activity [16] of 94.1%, an Activity [17] of 1% and an Activity [18] of 95.2%. The Activity [19] was 0.4%, the Activity [20] was 6.09% and the Activity [21] was 57%. It also gave an Activity [22] of 4%, an Activity [23] of 5.03% and an Activity [24] of 96.9%. For the same compound, the Activity [25] was 92%, the Activity [26] was 97.6% and the Activity [27] was 7.13%. The Activity [28] was 92.4%, the Activity [29] was 1% and the Activity [30] was 2%. For the same compound, the Activity [31] was 1.52%, the Activity [32] was 7.62% and the Activity [33] was 1.43%. For the same compound, the Activity [34] was 85.8%, the Activity [35] was 98.2% and the Activity [36] was 14.2%. For the same compound, the Activity [37] was 72.2%, the Activity [38] was 97.4% and the Activity [39] was 93.9%. The Activity [40] was 98.5%, the Activity [41] was 1% and the Activity [42] was 7.99%. The Activity [43] was 96.8%, the Activity [44] was 2.13% and the Activity [45] was 27.8%. It also gave an Activity [46] of 2.43%.
